Measurements as given in patent publication US20040265847A1, “Method for treating Alzheimer's disease” (priority 1991, published 2004).

Key:
APP-degrading protease = test: Assay of APP-degrading protease (Zn^2+-enhanced degradation of plasma 130 kDa APP); format: biochemical, human; details: plasma APP from heparin-Sepharose eluates, 37° C.
[1] = molecular target: T1, APP purified from rat brain (Rattus norvegicus, UniProt P08592); test: heparin binding to APP in a Biosensor system; details: summary statement, 'may increase'
T1 construct: from tissue; host or cells: rat brain
T1 sequence (P08592 18-770): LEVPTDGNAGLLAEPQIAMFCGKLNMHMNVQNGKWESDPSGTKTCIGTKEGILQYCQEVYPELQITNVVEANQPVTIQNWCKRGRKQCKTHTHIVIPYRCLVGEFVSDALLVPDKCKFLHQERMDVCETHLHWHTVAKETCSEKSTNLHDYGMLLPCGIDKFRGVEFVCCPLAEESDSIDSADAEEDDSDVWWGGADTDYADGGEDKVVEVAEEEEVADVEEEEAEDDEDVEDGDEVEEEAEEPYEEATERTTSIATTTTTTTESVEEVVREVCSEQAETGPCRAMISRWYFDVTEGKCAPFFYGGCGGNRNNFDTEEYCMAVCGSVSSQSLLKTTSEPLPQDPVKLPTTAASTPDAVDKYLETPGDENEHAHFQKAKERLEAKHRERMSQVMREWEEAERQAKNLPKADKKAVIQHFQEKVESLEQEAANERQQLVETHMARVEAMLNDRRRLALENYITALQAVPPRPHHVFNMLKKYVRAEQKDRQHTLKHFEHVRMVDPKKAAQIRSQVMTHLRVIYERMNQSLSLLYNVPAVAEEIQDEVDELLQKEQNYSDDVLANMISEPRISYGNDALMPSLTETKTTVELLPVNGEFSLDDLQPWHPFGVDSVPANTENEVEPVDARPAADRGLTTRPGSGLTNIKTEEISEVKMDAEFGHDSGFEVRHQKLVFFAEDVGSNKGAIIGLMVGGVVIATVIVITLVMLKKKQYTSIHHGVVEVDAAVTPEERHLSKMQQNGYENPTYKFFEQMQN
Procedure: The effect of Zn^2+ in modulating heparin binding to APP was also studied in a Biosensor system. […] This effect was most pronounced and most specific for Zn^2+, as opposed to the absence of divalent cations or the presence of Ca^2+, Mg^2+ or Co^2+, and was most evident when the heparin:APP ratio was low. […] Zn^2+ at 50 nM promoted a =170% increase in heparin binding, the effect saturating at 70 μM.

[2] = system: human brain membrane-derived APP; test: trypsin digestion of human brain membrane-derived APP, Western blot with 22C11; format: biochemical; details: summary statement
Text: The proteolytic activity of trypsin (Boehringer, Mannheim) was studied to determine whether it was modulated by a range of doses of heparin (Sigma) and ZnCl2. […] Western blots for APP using the APP binding monoclonal antibody 22C11 were used to monitor the progression of the proteolytic reaction and to detect breakdown products.

plasma APP = test: Effect of zinc loading upon human plasma APP; format: in vivo
Procedure: (§1) 100 mg elemental zinc (as sulphate, in capsules) was given orally to two individuals with Alzheimer's disease (NINCDS/ADRDC criteria with abnormal plasma APP profiles) and two age-matched controls (with normal plasma APP profiles). Zinc was continued for 7 days and morning fasting bloods collected before the commencement of zinc supplements and three weeks after ceasing the supplement. Western blots with monoclonal antibody 22C11 were carried out on 65 μg of plasma heparin-Sepharose eluate purified from the samples in the manner previously described. The results indicated an increase of 130 kDa species plasma APP relative to the other species present, in other words a shift towards the profile of APP species that is characteristic of Alzheimer's disease. The two control plasma APP profiles came to resemble Alzheimer's disease profiles, and the two Alzheimer's profiles worsened. The proportional increase in the 130 kDa species was approximately 20% per day of zinc supplementation.

[3] = Administration of zinc in Alzheimer's disease: neurological response; format: in vivo, human
Procedure: as §1
The subjects from Example 3 were studied.
The two AD volunteers because acutely unwell while on zinc supplementation. […] Eye movement abnormalities and general levels of self care worsened over the period of supplementation. This response was consistent with a neurotoxic response to the zinc supplementation.

PC12 cells = test: Effect of extracellular APP on zinc uptake by PC12 cells; format: cell-based; details: 10 nM APP, within an hour (=4% in the absence of APP)
Procedure: 10^6 PC12 cells were plated for 24 hr in the presence of Dulbecco's modified Eagle's medium (DMEM, N2) supplemented with 8% fetal calf serum (FCS). The medium was then removed and replaced with DMEM with no FCS and incubated for a further 24 hr. The cells were then washed (×2 with DMEM) and incubated with DMEM supplemented with 10 nM 130/110 kDa purified brain membrane-associated APP carrying 20 000 CPM ^65Zn prepared as in FIG. 1 above. Following varying periods of incubation, the cells were harvested, washed, exposed to Pronase digestion to remove surface proteins and then lysed in scintillant and assayed in a beta-counter.

Row | increase of APP affinity for heparin [1] | return of cognitive function to previous levels after ceasing supplementation ([3]; AD volunteers) | eye movement abnormalities and general levels of self care ([3]; AD volunteers, over the period of supplementation) | ill effects in healthy volunteers ([3]; healthy volunteers on zinc supplementation) | Compound | zinc concentration required to stimulate proteolysis (APP-degrading protease) | zinc concentration at which the protective effects of heparin are abolished [2] | proportional increase in the 130 kDa species of plasma APP (plasma APP; 100 mg elemental zinc orally for 7 days, AD and age-matched controls) | persistence of changes in plasma APP profile (plasma APP; elderly control, four-fold higher dose over three days) | mini-mental state examination scores ([3]; Alzheimer's disease volunteers on oral zinc supplementation) | ^65Zn counts internalized (PC12 cells)
1 | 5 to 10 fold | within two weeks | worsened | no ill effects | [Zn] [zinc] | 20 μm | above 1 μm | approximately 20 % per day | persisted for three days after ceasing supplementation | deteriorating from moderately demented levels to unrecordable | 
2 |  |  |  |  | APP: 130/110 kDa purified brain membrane-associated amyloid precursor protein carrying ^65Zn |  |  |  |  |  | 10%
